Assay results taken from US20250378918A1, “Phenotype-Based Chemical Screens” (Nemametrix, priority 2015, published 2025).

Assays:
[1] = test system: zebrafish larvae; experiment: phenoBlast query of behavioral profile database with haloperidol profile; assay type: in vivo; details: screened at 10 μM; cutoff = DMSO control well most similar to haloperidol query; FIGS. 2A-2C
Protocol: To identify compounds with haloperidol-like behavioral profiles, the behaviors of zebrafish larvae in 29,760 compound-treated wells (including 4,300 known bioactive compounds, 20,000 uncharacterized novel compounds and more than 5,000 DMSO controls) were systematically quantified. Behavioral profiles from each well were compiled into a database. Then, the average profile of three haloperidol (5 μM)-treated wells was used to query the compiled database for additional compounds that cause haloperidol-like phenotypes. […] Four of the known hit compounds were antipsychotic drugs (including three butyrophenones and one tricyclic). A fifth compound, DO 897/99 has been under investigation for treatment of schizophrenia and a sixth compound, lidoflazine, is structurally related to the known antipsychotic amperozide and other antipsychotics in the diphenylbutylpiperidine class (e.g., clopimozide, fluspirilene and pimozide) (FIG. 2C).
The Actiprobe library (TimTec Corporation) contains 10,000 compounds dissolved in DMSO at a stock concentration of 1 mg/ml (˜3 mM). The Chembridge library (Chembridge Corporation) contains 10,000 compounds dissolved in DMSO at a stock concentration of 1 mM. The Spectrum Collection (MicroSource Discovery) contains 2,320 compounds dissolved in DMSO at a concentration of 10 mM. The Prestwick library (Prestwick Chemical) contains 1,280 approved drugs dissolved in DMSO at a stock concentration of 10 mM. […]
Digital video were captured at 25 frames per second using an AVT Pike digital camera. […] To analyze digital video recordings, a motion index was calculated by frame differencing. […]
For each well, the raw motion index from each assay was concatenated into a 10,500-point motion index time series. […] The haloperidol query was calculated by averaging the time series from three replicate haloperidol-treated wells. To calculate the phenoBLAST distance metric, L1 distances were calculated by: phenoBLAST Distance=sum (abs(query-well)), where ‘query’ and ‘well’ indicate their associated time series.

[2] = test system: larval zebrafish; experiment: battery of ten zebrafish behavioral assays (motion index); assay type: in vivo; details: for haloperidol-like behavioral phenotype: antipsychotic drugs, FIG. 1B
Protocol: Haloperidol, a butyrophenone, is known to bind at least 20 molecular targets found in the human brain. To determine how haloperidol affects zebrafish behavior, a battery of ten behavioral assays was developed to compare behavioral profiles from control (DMSO) and haloperidol-treated animals.
A large number of fertilized eggs (up to 20,000 embryos per day) were collected from group matings of Ekkwill zebrafish. Embryos were raised in hatching jars at 28° C. on a 14/10 hour light/dark cycle until 3 days post fertilization (d.p.f.), then transferred to an incubator under the same conditions until 7 d.p.f. Groups of approximately ten larvae (7 d.p.f.) were distributed into the wells of clear flat bottom square well 96-well plates filled with E3 medium (300 μl). Larvae were then incubated at 25° C. on the bench top for one hour prior to chemical treatment and subsequent experiments. All zebrafish protocols were approved by the Institutional Animal Care and Use Committee at Massachusetts General Hospital or at Teleos Therapeutics, LLC.
The Actiprobe library (TimTec Corporation) contains 10,000 compounds dissolved in DMSO at a stock concentration of 1 mg/ml (˜3 mM). The Chembridge library (Chembridge Corporation) contains 10,000 compounds dissolved in DMSO at a stock concentration of 1 mM. The Spectrum Collection (MicroSource Discovery) contains 2,320 compounds dissolved in DMSO at a concentration of 10 mM. The Prestwick library (Prestwick Chemical) contains 1,280 approved drugs dissolved in DMSO at a stock concentration of 10 mM. The Neurotransmitter library (Biomol International; cat. No. 2810) contains 700 compounds dissolved in DMSO at a stock concentration of 10 mM. All compounds were diluted in E3 buffer and screened at 10 μM final concentration and <1% DMSO. Negative controls were treated with an equal volume of DMSO. Stock solutions were added directly to zebrafish in the wells of a 96-well plate, mixed and allowed to incubate for 1 h at room temperature before behavioral evaluation in the Behavioral Battery of assays. Reordered hit compounds were dissolved in DMSO to a stock concentration of 30 mM and added to wells as described above. Hits were retested at a concentration range of 50, 10, 5, 1, 0.5, 0.1, and 0.05 μM in triplicate; assays for retesting were run at 10-minute and 1-hour incubation time points.
Digital video were captured at 25 frames per second using an AVT Pike digital camera. High intensity LEDs were used to deliver violet (405 nm), blue (450 nm), and red (660 nm) light stimuli. Acoustic stimuli were delivered using push-style solenoids to tap the stage. Stimuli and digital recordings were applied to the entire 96-well plate simultaneously. Instrument control and data acquisition were performed using custom MATLAB scripts. Each assay, including video recording and data processing, took ˜40 s per plate per 30 s assay, enabling us to routinely screen 96 wells against a battery of ten assays in less than ten minutes. To analyze digital video recordings, a motion index was calculated by frame differencing. […] The behavioral battery was comprised of ten assays (Assay 1-10) performed in numerical order. phenoBlast ranking and statistics

Structure (SMILES)	phenoBlast similarity to haloperidol (5 μM) query profile, hit ranking [1]	haloperidol-like behavioral phenotype [2]	further results
COc1ccccc1N1CCN(CCCCNC(=O)c2ccc3ccccc3c2)CC1.Cl.Cl [DO 897/99]	hit compounds		
O=C(CCCN1CCC(O)(c2ccc(Br)cc2)CC1)c1ccc(F)cc1 [bromperidol]	top ranked hit compound	cause haloperidol-like behaviors	
O=C(CCCN1CC=C(n2c(=O)[nH]c3ccccc32)CC1)c1ccc(F)cc1 [droperidol]		cause haloperidol-like behaviors	
O=C(CCCN1CCC(O)(c2ccc(Cl)cc2)CC1)c1ccc(F)cc1 [haloperidol]			effect on locomotion of larval zebrafish ([2]; high concentrations (50 μM)): locomotor impairment; motion index in behavioral battery ([2]; lower concentrations (5 μM), FIG. 1A): complex pattern of increased activity
Cc1cccc(C)c1NC(=O)CN1CCN(CCCC(c2ccc(F)cc2)c2ccc(F)cc2)CC1 [lidoflazine]	hit compounds		
c1ccc2c(c1)Nc1ccccc1S2 [phenothiazine]		cause haloperidol-like behaviors	
CN1CCN(CCCN2c3ccccc3Sc3ccc(Cl)cc32)CC1 [prochlorperazine]		cause haloperidol-like behaviors	
CSc1ccc2c(c1)N(CCC1CCCCN1C)c1ccccc1S2 (stereo not shown) [thioridazine]		cause haloperidol-like behaviors	
